Experimental data taken from patent publication US11786555B2, “RAR selective agonists in combination with immune modulators for cancer immunotherapy” (IO THERAPEUTICS, INC., priority 2017, dated 2023).

Legend:
CD4+ T cells = assay: in vivo T cell differentiation in mice (blood and spleen); set-up: species or system mouse; details: in vivo, data not shown
Experimental: To expand on the finding above, the in vivo effects of a RARα agonist on T cell differentiation was evaluated in a mouse model. Mice were treated with 100 μg of compound IRX5183 or an equivalent volume of DMSO (vehicle control) every other day for 10 days. Lymphocytes from the blood and spleen were then isolated and FoxP3 expression in CD4^+ T cells was assessed.

[1] = tested on: naive CD4+ CD25− FoxP3− cells; assay: in vitro Treg cell differentiation (FoxP3-GFP, flow cytometry); assay type: cell-based, mouse; details: data not shown
Experimental: (§1) To determine whether a RARα agonist could affect T cell differentiation, T cells were incubated with a RARα agonist to determine its effect on Foxp3 expression. Naive CD4^+ CD25^− FoxP3^− cells were purified from a Foxp3-GFP mouse using flow cytometry by sorting and isolating based upon a GFP^− phenotype. These cells were activated polyclonally with αCD3 in vitro in the presence of IL-2 and TGF-β. These cells were then cultured in media with various concentrations of compound IRX5183 (a RARα agonist) and the expression of FoxP3-GFP was analyzed by flow cytometry. The RARα agonist compound IRX5183 enhanced differentiation of immunosuppressive Treg cells and inhibited differentiation of inflammatory TH17 cells from naïve T cells in vitro (Table 2).

[2] = tested on: naive CD4+ CD25− FoxP3− cells; assay: in vitro Th17 cell differentiation; assay type: cell-based, mouse; details: in vitro, data not shown
Experimental: as §1

H929 Luc+ cells = assay: systemic MM xenograft, bioluminescence; assay type: in vivo, mouse; details: monotherapy, 4 weeks; BTZ 0.5 mg/kg i.p. twice weekly, IRX 10 mg/kg once daily
Experimental: FIG. 6 depicts bioluminescent images of systemic MM xenografts. Following engraftment of H929 Luc+ cells, mice were treated with IRX (n=4), BTZ (n=5), or a combination of both (n=5) for 4 weeks. Data represent the mean±SEM of the fold change in bioluminescence (photons/second) from day 0.
For the systemic MM model, 2×10^6 Luc+/GFP+ H929 cells were injected via the tail vein into 16-week-old male NSG mice. After engraftment, as determined by an exponential increase in bioluminescence, mice were treated with BTZ (0.5 mg/kg i.p.) twice weekly and with IRX (10 mg/kg) once daily. Tumor burden was assessed by bioluminescence, as above.
To test whether retinoids can enhance BTZ activity in MM, a systemic MM xenograft was developed by injecting 2×10^6 H929 luciferase+ (Luc+) cells via the tail vein of non-obese, diabetic, severe combined immunodeficiency IL-2 receptor y-KO (NSG) mice. The animals were randomized to receive IRX, BTZ, or a combination of both, and disease burden was followed weekly by bioluminescence imaging (FIG. 6).

[3] = tested on: H929 cells and primary CD138+ MM cells; assay: clonogenic or cellular recovery of MM cells after BTZ treatment; assay type: cell-based, human; details: for sensitivity of MM cells to BTZ: BTZ 2.5 nM for 48 hours
Experimental: FIG. 4A-B depicts the clonogenic recovery (CFU) of H929 cells (FIG. 4A) or cellular recovery of primary CD138+ MM cells from 3 different patient samples (FIG. 4B). MM cells were treated with bortezomib (BTZ; 2.5 nM) for 48 hours after being incubated for 5 days either in the absence of stroma (Liquid), with or without the pan-RAR inhibitor AGN (1 μM), or in the presence of BM mesenchymal cells (Stroma), with or without the CYP26 inhibitor R115 (1 μM) or the CYP26-resistant retinoid IRX (1 μM). Clonogenic or cellular recovery was normalized to each condition in the absence of BTZ.
(§2) Coculture experiments. 24-well plates were coated with 0.1% gelatin in PBS for 30 min at 37° C. The gelatin solution was removed, and the stromal cells were cultured overnight at a density of 5×10^4 cells/well to obtain a confluent monolayer. At that time, MM cell lines or primary MM cells (1×10^5 in 2 ml) were added to the stroma cultures. The stroma cocultures were incubated at 37° C. in RPMI containing 10% FCS, L-glutamine, and P/S, with or without AGN194310 (1 μM for 5 days), R115866 (1 μM for 5 days), IRX5183 (1 μM for 5 days), or BTZ (2.5 nM for 48 hr).
Clonogenic assays. After treatment, MM cells were collected, washed with PBS, and plated at a density of 5,000 cells/ml in 1 ml of 1.32% methylcellulose supplemented with 30% FBS, 10% BSA, L-glutamine, P/S, and 0.1 mM β-ME. Cells were plated in triplicate in 35-mm culture dishes, incubated at 37° C., and scored for the presence of colonies 14 days later.
A RA-low microenvironment induces BTZ resistance. To determine whether decreased retinoid signaling contributes to BTZ resistance within the BM niche, MM cell lines and MM CD138+ primary cells were incubated with BM stroma for 5 days, followed by BTZ treatment.

[4] = tested on: H929 Luc+ cells with WT or Smo-KO stroma; assay: subcutaneous xenograft model of MM-niche interactions, bioluminescence; assay type: in vivo, mouse; details: BTZ 0.5 mg/kg i.p. twice weekly
Experimental: FIG. 9 depicts bioluminescent images of mice showing tumor burden during 4 weeks of treatment with IRX (10 mg/kg), BTZ (0.5 mg/kg), or the combination. Anterior tumors consisted of a combination of MM.1S luciferase^+ cells and Smo^FI/FI BM stroma cells transduced with a control vector (WT BM stroma). Posterior tumors consisted of a combination of MM.1S luciferase^+ cells and Smo^FI/FI BM stroma cells transduced with Cre-recombinase (Smo KO BM stroma).
FIG. 10 depicts the fold change in bioluminescence (photons/second) of tumors during 4 weeks of treatment. The change in bioluminescence for each tumor […].
Mouse xenografts. 1×10^6 H929 Luc+ cells and 1×10^6 mouse BM stromal cells were resuspended in 100 μl […]®, diluted with RPMI (1:1), and injected subcutaneously into 16-week-old male NSG mice. After 4 days, treatment with BTZ (0.5 mg/kg i.p. twice weekly) and IRX (10 mg/kg i.p. daily) was initiated. Tumor burden was assessed by bioluminescence using the In Vivo Imaging System (PerkinElmer). For imaging, mice were exposed to 120 mg/kg D-luciferin via intraperitoneal injection […] before imaging and were anesthetized using isoflurane. Images were analyzed with Living Image Software, version 2.5 (PerkinElmer), and data were quantified as photons/second.
To study to what extent an RA-low environment created by the BM stroma and enhanced by MM cells via paracrine Hedgehog signaling contributes to BTZ resistance, a xenograft model of MM-niche interactions was developed. Each mouse carried 2 subcutaneous tumors consisting of H929 Luc+ cells and either WT (anterior tumors) or Smo-KO stroma (posterior tumors). Mice were treated with IRX (10 mg/kg i.p. daily), BTZ (0.5 mg/kg i.p. twice weekly), or a combination of both. The growth of tumors bearing WT or Smo-KO stroma was not different in untreated or IRX-treated groups (FIGS. 9 and 10). […] While some tumors in the treatment group receiving combined IRX and BTZ appeared to have regressed completely, even after anatomical study, this was not the case for all the mice in this group.

H929 cells = assay: mobilization experiment, BTZ after separation from BM stroma; assay type: cell-based, human
Experimental: FIG. 5 depicts clonogenic recovery of H929 cells treated with BTZ (2.5 nM). MM cells were incubated for 5 days in the absence (Liquid) or presence of BM mesenchymal cells (Stroma), with or without R115 (1 μM). Following this preincubation, H929 cells were separated from BM stroma, cultured in fresh media for 0 to 48 hours, and then treated with BTZ (2.5 nM) for 48 hours. Clonogenic recovery was normalized to each condition in the absence of BTZ.
Mobilization experiments. MM cells were separated from BM stromal cells by gently pipetting several times around the well. Detached cells were centrifuged, resuspended in fresh media, and incubated in a 24-well plate for 1 hr at 37° C. During this short incubation period, contaminating stromal cells attached to the well, while MM cells remained in suspension. MM cells were then recovered by gently pipetting. This protocol was used for qRT-PCR and CFU coculture experiments. […]
Clonogenic assays. […] Cells were plated in triplicate in 35-mm culture dishes, incubated at 37° C., and scored for the presence of colonies 14 days later.
Strategies to overcome microenvironment-dependent chemoprotection have focused on mobilization of cancer cells from the BM niche into the peripheral circulation. It was analyzed whether the change in phenotype and subsequent BTZ resistance of MM cells were lost upon separation from the BM stroma, a process that mimics mobilization. […]

[5] = tested on: H929 cells and CD138+ primary MM cells; assay: qRT-PCR of B cell and PC markers in MM cells, liquid or BM stroma co-culture; assay type: cell-based, human
Experimental: FIG. 3A-H depicts the relative concentration of plasma markers BCL6 (FIG. 3A and E), BLIMP-1 (FIG. 3B and F), XBPS-1 (FIG. 3C and G), and CHOP (FIG. 3D and H) in multiple myeloma (MM) cell lines H929 (FIG. 3A-D) or CD138+ MM cells from three different patient samples (FIG. 3E-H) incubated for 5 days either in the absence of stroma (Liquid), with or without AGN (RA receptor antagonist AGN194310, 1 μM), or co-cultured with BM mesenchymal cells (Stroma), with or without R115 (CYP26 inhibitor R115866, 1 μM) or IRX (CYP26-resistant retinoid IRX5183, 1 μM). Expression in untreated liquid conditions was set at 1. Data are representative of 3 independent experiments with similar results and represent the mean ±SEM. *P≤0.05 and **P≤0.01, by repeated-measures 1-way ANOVA for determination of statistical significance between groups; P values were corrected for multiple comparisons using Dunnett's test. Ctrl, control; max, maximum.
as §2
(§3) qRT-PCR. Total RNA was extracted using the RNeasy Mini Kit (QIAGEN) according to the manufacturer's instructions. cDNA was synthesized by reverse transcription using the iScript cDNA Synthesis Kit (Bio-Rad). qRT-PCR was performed with iTaq SYBR Green Supermix (Bio-Rad) using sequence specific primers. Gene expression was normalized to GAPDH, and relative quantification was calculated using ΔΔCt. All experiments were performed in duplicate and run on the Bio-Rad CFX96 machine.
The BM microenvironment (also called “niche”) limits PC differentiation by modulating retinoid signaling. A population of MM progenitors, phenotypically similar to B cells, is intrinsically resistant to BTZ and contributes to MRD and relapse. To investigate whether the BM niche plays a role in determining the phenotype of MM cells, the mRNA expression of B cell and PC markers in MM H929 cell lines (FIG. 3A-D) and MM CD138+ primary cells (FIG. 3E-H) was analyzed following co-culture with mouse BM stroma using human-specific primers. […] In contrast, co-culture of MM cells with BM stroma decreased the mRNA expression of B lymphocyte-induced maturation protein 1 (BLIMP1) and spliced X box-binding protein 1 (XBP1s) (FIG. 3B, C, F, G), which are critical mediators of PC differentiation.
The BM niche regulates hematopoietic stem cell (HSC) differentiation by expressing the retinoid-inactivating enzyme CYP26. CYP26 enzymes were highly expressed in BM mesenchymal cells, while their expression was barely detectable in MM cells. Since retinoid signaling promotes PC differentiation and potentiates Ig secretion, it was determined whether stromal CYP26 is responsible for inducing a B cell phenotype in MM cells. To this end, co-culture conditions were treated with the CYP26 inhibitor R115866 (R115) or the CYP26-resistant RA receptor α-selective (RARα-selective) retinoid IRX5183 (IRX).

BM stromal cells = assay: CYP26A1 expression in BM stromal cells exposed to soluble factors; assay type: cell-based; details: soluble factors tested
Experimental: as §3

## CCOc1c(Br)cc(C(=O)Nc2ccc(C(=O)O)cc2)cc1C(=O)c1ccc(C)cc1 [AGN196996]
CD4+ T cells
  Th17 cell numbers: increases Th17 cell numbers
  Treg cell numbers: decreases Treg cell numbers
[1]
  Treg cell numbers: decreases Treg cell numbers
[2]
  Th17 cell numbers: increases Th17 cell numbers

## CC(C)C[C@H](NC(=O)[C@H](Cc1ccccc1)NC(=O)c1cnccn1)B(O)O [BTZ, bortezomib]
H929 Luc+ cells
  tumor burden (bioluminescence): decreased tumor growth compared with untreated controls
[3]; absence of BM stroma (liquid)
  sensitivity of MM cells to BTZ: highly sensitive to BTZ
[3]; after 5 days incubation with BM stroma
  sensitivity of MM cells to BTZ: induced BTZ resistance
[4]; tumors carrying Smo-KO stroma
  tumor response (bioluminescence): significant response
[4]; tumors with WT stroma
  tumor response (bioluminescence): refractory to BTZ treatment
H929 cells; 5-day stroma co-culture, fresh media 0 to 48 hr, then BTZ 2.5 nM
  BTZ resistance after separation from BM stroma: remained partially resistant to BTZ for up to 48 hr following detachment from stroma

## CCC(CC)C(c1ccc(Nc2nc3ccccc3s2)cc1)n1cncn1 (stereo not shown) [Compound R115866]
[3]; stroma co-culture, 1 μM for 5 days, then BTZ 2.5 nM
  effect on stroma-induced BTZ resistance: overcome
[5]; liquid conditions compared with BM stroma
  expression of differentiation markers by qRT-PCR or flow cytometry: did not significantly affect the expression of differentiation markers
[5]; stroma co-cultures, 1 μM for 5 days
  mRNA expression of B cell and PC markers (BCL6, BLIMP1, XBP1s, CHOP): restored all markers to levels comparable to those of liquid control conditions
H929 cells; co-culture treated with 1 μM, then separation and BTZ
  development of BTZ-resistant phenotype: prevented the development of a BTZ-resistant phenotype

## IL-6: cytokine, soluble factor produced by MM cells
BM stromal cells
  expression of CYP26A1 on BM stromal cells: no significant effects

## TNF-α
BM stromal cells
  expression of CYP26A1 on BM stromal cells: no significant effects
